Test results taken from BindingDB's records for doi:10.1021/cb500893q (University of California Berkeley, 2015).

Each compound was assayed against T1, Platelet-activating factor acetylhydrolase IB subunit alpha2 (Mus musculus, UniProt Q61206) (assay: Competitive ABPP Assays in Proteomes with FP-alkyne). Settings: pH 7.5.
T1 sequence (Q61206 whole entry): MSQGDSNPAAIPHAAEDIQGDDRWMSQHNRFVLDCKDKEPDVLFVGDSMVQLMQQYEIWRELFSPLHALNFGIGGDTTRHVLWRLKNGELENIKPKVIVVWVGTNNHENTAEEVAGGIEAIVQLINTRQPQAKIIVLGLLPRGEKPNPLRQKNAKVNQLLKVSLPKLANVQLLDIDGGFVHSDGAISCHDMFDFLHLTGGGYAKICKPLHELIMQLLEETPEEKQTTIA
Experimental: Total protein concentrations for each fraction were adjusted to 1 mg/mL in PBS (50 μL total reaction volume). Samples were then subjected to click chemistry by the addition of 1 mM CuSO4 (1 μL of a 50x stock in DMSO), followed by TBTA (3 μL of a 17x stock in 4:1 t-butanol:DMSO), then 25 μM Rh-N3 (1 μL of a 50x stock in DMSO) and 1 mM TCEP (1 μL of a 50x stock in DMSO). Reactions were vortexed, incubated for 1 h at 25 °C, and quenched with 4x SDS-PAGE loading buffer and analyzed by in-gel fluorescence scanning.

Row | SMILES | IC50
1 | CCc1ccc(C2CC=C(C(=O)O)C(c3cccc(Cl)c3)N2S(=O)(=O)c2ccc(C)cc2)cc1 (stereo unspecified) [2-(3-chlorophenyl)-6-(4-ethylphenyl)-1-(4-methylbenzenesulfonyl)-1,2,5,6-tetrahydropyridine-3-carboxylic acid (J8)] | 9.4 µM
2 | COCCNC(=O)C1=CCC(c2ccc(C)cc2)N(S(=O)(=O)c2ccc(C)cc2)C1c1ccc(C(C)(C)C)cc1 (stereo unspecified) [2-(4-(tert-butyl)phenyl)-N-(2-methoxyethyl)-6-(p-tolyl)-1-tosyl-1,2,5,6-tetrahydropyridine-3-carboxamide (JW1041)] | 1.7 µM
3 | Cc1ccc(C2CC=C(C(=O)NC3CCCCC3)C(c3ccc(C(C)(C)C)cc3)N2S(=O)(=O)c2ccc(C)cc2)cc1 (stereo unspecified) [2-(4-(tert-butyl)phenyl)-N-cyclohexyl-6-(p-tolyl)-1-tosyl-1,2,5,6-tetrahydropyridine-3-carboxamide (JW1039)] | > 10 µM
4 | Cc1ccc(C2CC=C(C(=O)NC3CC3)C(c3ccc(C(C)(C)C)cc3)N2S(=O)(=O)c2ccc(C)cc2)cc1 (stereo unspecified) [2-(4-(tert-butyl)phenyl)-N-cyclopropyl-6-(p-tolyl)-1-tosyl-1,2,5,6-tetrahydropyridine-3-carboxamide (JW1038)] | 9.3 µM
5 | CNC(=O)C1=CCC(c2ccc(C)cc2)N(S(=O)(=O)c2ccc(C)cc2)C1c1ccc(C(C)(C)C)cc1 (stereo unspecified) [2-(4-(tert-butyl)phenyl)-N-methyl-6-(p-tolyl)-1-tosyl-1,2,5,6-tetrahydropyridine-3-carboxamide (JW1036)] | > 10 µM
6 | Cc1ccc(C2CC=C(CBr)C(c3ccc(C(C)(C)C)cc3)N2S(=O)(=O)c2ccc(C)cc2)cc1 (stereo unspecified) [5-(bromomethyl)-6-(4-(tert-butyl)phenyl)-2-(p-tolyl)-1-tosyl-1,2,3,6-tetrahydropyridine (JW1058)] | 4.6 µM
7 | COC(=O)C1=CCC(c2ccc(C)cc2)N(S(=O)(=O)c2ccc(C)cc2)C1c1ccc(C(C)(C)C)cc1 (stereo unspecified) [Methyl-2-(4-(tert-butyl)phenyl)-6-(p-tolyl)-1-tosyl-1,2,5,6-tetrahydropyridine-3-carboxylate (JW1068)] | > 10 µM
8 | Cc1ccc(C2CC=C(CNC3CC3)C(c3ccc(C(C)(C)C)cc3)N2S(=O)(=O)c2ccc(C)cc2)cc1 (stereo unspecified) [N-((2-(4-(tert-butyl)phenyl)-6-(p-tolyl)-1-tosyl-1,2,5,6-tetrahydropyridin-3-yl)methyl)cyclopropanamine (JW1061)] | 7.6 µM
9 | C=CCNC(=O)C1=CCC(c2ccc(C)cc2)N(S(=O)(=O)c2ccc(C)cc2)C1c1ccc(C(C)(C)C)cc1 (stereo unspecified) [N-allyl-2-(4-(tert-butyl)phenyl)-6-(p-tolyl)-1-tosyl-1,2,5,6-tetrahydropyridine-3-carboxamide (JW1043)] | 7.5 µM

The next lines start with the values.

Row | IC50 | SMILES
10 | 4.5 µM | Cc1ccc(C2C(C(=O)O)=CCC(c3ccc(C(C)C)cc3)N2S(=O)(=O)c2ccc(C)cc2)cc1 (stereo unspecified) [1-(4-methylbenzenesulfonyl)-2-(4-methylphenyl)-6-[4-(propan-2-yl)phenyl]-1,2,5,6-tetrahydropyridine-3-carboxylic acid (F5)]
11 | 8.2 µM | Cc1ccc(C2CC=C(C(=O)O)C(c3cccc(Cl)c3)N2S(=O)(=O)c2ccc(C)cc2)cc1 (stereo unspecified) [2-(3-chlorophenyl)-1-(4-methylbenzenesulfonyl)-6-(4-methylphenyl)-1,2,5,6-tetrahydropyridine-3-carboxylic acid (J13)]
12 | 1.4 µM | Cc1ccc(S(=O)(=O)N2C(c3ccc(Cl)c(Cl)c3)CC=C(C(=O)O)C2c2ccc(Br)cc2)cc1 (stereo unspecified) [2-(4-bromophenyl)-6-(3,4-dichlorophenyl)-1-(4-methylbenzenesulfonyl)-1,2,5,6-tetrahydropyridine-3-carboxylic acid (K9)]
13 | 1.1 µM | Cc1ccc(S(=O)(=O)N2C(c3ccc(Cl)cc3)CC=C(C(=O)O)C2c2ccc(Br)cc2)cc1 (stereo unspecified) [2-(4-bromophenyl)-6-(4-chlorophenyl)-1-(4-methylbenzenesulfonyl)-1,2,5,6-tetrahydropyridine-3-carboxylic acid (H4)]
14 | 2 µM | Cc1ccc(C2CC=C(C(=O)O)C(c3ccc(F)cc3)N2S(=O)(=O)c2ccc(C)cc2)cc1 (stereo unspecified) [2-(4-fluorophenyl)-1-(4-methylbenzenesulfonyl)-6-(4-methylphenyl)-1,2,5,6-tetrahydropyridine-3-carboxylic acid (O8)]
15 | 1.1 µM | Cc1ccc(S(=O)(=O)N2C(c3ccc(C(C)C)cc3)CC=C(C(=O)O)C2c2ccc(F)cc2)cc1 (stereo unspecified) [2-(4-fluorophenyl)-1-(4-methylbenzenesulfonyl)-6-[4-(propan-2-yl)phenyl]-1,2,5,6-tetrahydropyridine-3-carboxylic acid (B6)]
16 | 0.8 µM | Cc1ccc(C2CC=C(C(=O)O)C(c3ccc(C(C)(C)C)cc3)N2S(=O)(=O)c2ccc(C)cc2)cc1 (stereo unspecified) [2-(4-tert-butylphenyl)-1-(4-methylbenzenesulfonyl)-6-(4-methylphenyl)-1,2,5,6-tetrahydropyridine-3-carboxylic acid (P11)]
